Columns and labels:
[1] = test system: influenza virus A/H1N1/pdm09; type: cell-based, influenza virus A/California/07/09/H1N1/pdm09
MDCK cells = conditions: dog

Row | Molecule | anti-viral activity (in words) [1] | CD50 (MDCK cells) | other results
1 | 18α-GL [Compound 15] | week anti-viral activity |  | EC50 [1]: 15.2 µM; SI [1]: 3; more toxic to cells than natural glycoside 1 (MDCK cells): 7.7 times
2 | CC1(C)[C@@H](O[C@H]2O[C@H](C(=O)O)[C@@H](O)[C@H](O)[C@H]2O[C@@H]2O[C@H](C(=O)O)[C@@H](O)[C@H](O)[C@H]2O)CC[C@]2(C)[C@H]3C(=O)C=C4[C@@H]5C[C@@](C)(C(=O)O)CC[C@]5(C)CC[C@@]4(C)[C@]3(C)CC[C@@H]12 [Compound 1, Glycyrrhizic acid] | did not show anti-viral activity | 364.6 µM | 
3 | COC(=O)[C@H](Cc1ccccc1)NC(=O)[C@H]1O[C@@H](O[C@H]2[C@H](O[C@H]3CC[C@]4(C)[C@H]5C(=O)C=C6[C@@H]7C[C@@](C)(C(=O)O)CC[C@]7(C)CC[C@@]6(C)[C@]5(C)CC[C@H]4C3(C)C)O[C@H](C(=O)N[C@@H](Cc3ccccc3)C(=O)OC)[C@@H](O)[C@@H]2O)[C@H](O)[C@@H](O)[C@@H]1O [Compound 5] |  |  | more wide SI values than Rimantadine [1]: 12.2 times
4 | COC(=O)C[C@H](NC(=O)[C@H]1O[C@@H](O[C@H]2[C@H](O[C@H]3CC[C@]4(C)[C@H]5C(=O)C=C6[C@@H]7C[C@@](C)(C(=O)O)CC[C@]7(C)CC[C@@]6(C)[C@]5(C)CC[C@H]4C3(C)C)O[C@H](C(=O)N[C@@H](CC(=O)OC)C(=O)OC)[C@@H](O)[C@@H]2O)[C@H](O)[C@@H](O)[C@@H]1O)C(=O)OC [Compound 9] | does not confer virus-inhibiting properties | 37.3 µM | 
5 | CC1(C)[C@@H](O[C@@H]2O[C@H](C(=O)N[C@@H](CSCc3ccccc3)C(=O)O)[C@@H](O)[C@H](O)[C@H]2O[C@@H]2O[C@H](C(=O)N[C@@H](CSCc3ccccc3)C(=O)O)[C@@H](O)[C@H](O)[C@H]2O)CC[C@]2(C)[C@H]3C(=O)C=C4[C@@H]5C[C@@](C)(C(=O)O)CC[C@]5(C)CC[C@@]4(C)[C@]3(C)CC[C@@H]12 [Compound 11] |  |  | more wide SI values than Rimantadine [1]: 14.2 times
6 | CC1(C)[C@@H](O[C@@H]2O[C@H](C(=O)N[C@@H](CCCCNC(=O)OCc3ccccc3)C(=O)O)[C@@H](O)[C@H](O)[C@H]2O[C@@H]2O[C@H](C(=O)N[C@@H](CCCCNC(=O)OCc3ccccc3)C(=O)O)[C@@H](O)[C@H](O)[C@H]2O)CC[C@]2(C)[C@H]3C(=O)C=C4[C@@H]5C[C@@](C)(C(=O)O)CC[C@]5(C)CC[C@@]4(C)[C@]3(C)CC[C@@H]12 [Compound 13] | slightly increased antiviral activity |  | 
7 | COC(=O)C[C@H](NC(=O)[C@H]1O[C@@H](O[C@H]2[C@H](O[C@H]3CC[C@]4(C)[C@H]5C(=O)C=C6[C@H]7C[C@@](C)(C(=O)O)CC[C@]7(C)CC[C@@]6(C)[C@]5(C)CC[C@H]4C3(C)C)O[C@H](C(=O)N[C@@H](CC(=O)OC)C(=O)OC)[C@@H](O)[C@@H]2O)[C@H](O)[C@@H](O)[C@@H]1O)C(=O)OC [Compound 16] |  | 38.0 µM | 
8 | CC1(C)[C@@H](O[C@@H]2O[C@H](C(=O)O)[C@@H](O)[C@H](O)[C@H]2O[C@@H]2O[C@H](C(=O)O)[C@@H](O)[C@H](O)[C@H]2O)CC[C@]2(C)C3=CC=C4[C@@H]5C[C@@](C)(C(=O)O)CC[C@]5(C)CC[C@@]4(C)[C@]3(C)CC[C@@H]12 [Compound 19] | moderate |  | more toxic to cells than natural glycoside 1 (MDCK cells): 17 times

Reference: paper PMC7127794 (Bioorganic & Medicinal Chemistry Letters, 2015)
